Measurements: patent US9175299B2, “Mutation involved in increased tolerance to imidazolinone herbicides in plants” (BASF AGROCHEMICAL PRODUCTS, B.V., priority 2004, dated 2015)

Tests used:
M3 Shiloh plants = assay: Tolerance rating of M3 progeny field plots sprayed with imazamox at the three-leaf stage; type: in vivo, Triticum aestivum
Method: Samples of 1,500 Shiloh variety seeds were each placed in a 1,000 ml beaker and covered with deionized water to at least 1 inch above the seed level. The beakers were then placed in a refrigerator at 4° C. for 15-20 hours. The seed samples were removed from the refrigerator and brought up to room temperature over an approximately 3 hour period by placing the beaker at room temperature. In some cases, the warming process was accelerated by adding deionized water to the beakers.
The deionized water was drained off the seeds, and the beaker was filled with a sodium azide solution to at least 1 inch above the seed level. The sodium azide solution was prepared by adding 27.218 g KH2PO4 to 1,500 ml deionized water, bringing the solution to pH 3 with concentrated H3PO4, and bringing the final solution to 2 L volume with deionized water. Just prior to use, 0.2604 g NaN3 was added, and the solution was kept in the dark. After addition of the sodium azide solution to the seeds, the beakers were incubated in a dark area at room temperature for 2 hours, with occasional stirring.
The sodium azide treatment solution was decanted, and the seed samples were rinsed twice with deionized water. Then the seed samples were covered with deionized water to at least 1 inch above seed level and soaked at room temperature for 1 hour, with occasional stirring. The deionized water was decanted, and the seeds were spread evenly on paper towels to dry. The seeds were planted in the field near Berthoud, Colo. in six 5 feet by 40 feet plots. Approximately 15 pounds of M2 seed were harvested, and approximately 466,000 seeds were planted near Platteville, Colo. The fields were sprayed with 1× (40 g ai ha^−1 (imazamox)) or 2× (80 g ai ha^−1 (imazamox)).
Plants tolerant to the herbicide were identified and transplanted into 1 gallon pots, and put into vernalization for 4 weeks at 45° F. Fourteen single plant selections were made out of the 2× rate area. The tolerant M2 plants were taken out of vernalization, grown out in a Berthoud, Colo. greenhouse, and M3 plants were planted in approximately 4 feet by 5 feet plots near Berthoud, Colo. The plots were sprayed with 80 g ai ha^−1 (imazamox) when the plants were at the three-leaf stage, and the results of the fourteen progenies were rated as shown in Table 1.

Shiloh-08 = assay: Greenhouse screen of Shiloh-08 seedlings with imazamox at the three-leaf stage; type: in vivo, Triticum aestivum; conditions: twelve seeds, 40 g ai ha^−1 imazamox
iShiloh-8/iGDN F2's = assay: Test cross with a known Als1 line, F2 screen for herbicide tolerance (Table 2); type: in vivo, Triticum aestivum; conditions: test cross of Table 2; herbicide not named at this place
Method: (§1) Two test-cross experiments of Shiloh-8 with a known Als1 line were performed.

iShiloh-8/imi GDN F2's = assay: Test cross EXP 2001-2 Winter, F2 screen for herbicide tolerance (Table 3); type: in vivo, Triticum aestivum
Method: as §1

iShiloh-8 = assay: Test cross EXP 2001-2 Winter, parent check (Table 3); type: in vivo, Triticum aestivum; conditions: number of plants of 8; herbicide not given
Method: as §1

Shiloh = assay: Test cross EXP 2001-2 Winter, wild type check (Table 3); type: in vivo, Triticum aestivum; conditions: number of plants of 7; herbicide not given
Method: as §1

imi GDN = assay: Test cross EXP 2001-2 Winter, known Als1 line check (Table 3); type: in vivo; conditions: number of plants of 2; herbicide not given
Method: as §1

iSHILOH-08 = assay: Multiple field imidazolinone herbicide imazamox tolerance comparisons (Table 5); type: in vivo, Triticum aestivum
Method: (§2) Agronomic and comparative imidazolinone herbicide imazamox tolerance were then evaluated under field conditions. Table 4 summarizes the yield and agronomic evaluations comparing Shiloh-8 and wild type Shiloh plants. These trials were typical cereal evaluation experiments using incomplete randomized block three replication design. Plots were 1.54 m×4.62 m at harvest. Table 5 summarizes multiple field imidazolinone herbicide imazamox tolerance comparisons between Shiloh-8 and the standard tolerant control […]. These plots ranged from a single row 1 m to larger 1.54 m×4.62 m plots.

9604 (iFEDEL) = assay: Multiple field imidazolinone herbicide imazamox tolerance comparisons (Table 5), standard tolerant control; type: in vivo, Triticum aestivum; conditions: scale 1-no effect 10-dead
Method: as §2

[1] = number of plants of 167 F2's, herbicide not given

In the case of COCc1cnc(C2=NC(C)(C(C)C)C(=O)N2)c(C(=O)O)c1 (stereo not drawn) [imazamox], the “Tolerance of M3 Shiloh plants to 80 g ai ha^−1 (imazamox)” value (shortened to “Tolerance of M3 Shiloh plants”) (M3 Shiloh plants; line Shiloh-01, 80 g ai ha^−1, three-leaf stage) is reported as “Medium MR-MS”, the “Tolerance of M3 Shiloh plants” value (M3 Shiloh plants; line Shiloh-03, 80 g ai ha^−1, three-leaf stage) is reported as “Discard-Sensitive” and the “Tolerance of M3 Shiloh plants” value (M3 Shiloh plants; line Shiloh-04, 80 g ai ha^−1, three-leaf stage) is reported as “Discard-Sensitive”. The “Tolerance of M3 Shiloh plants” value (M3 Shiloh plants; line Shiloh-05, 80 g ai ha^−1, three-leaf stage) was “Discard-Sensitive”, the “Tolerance of M3 Shiloh plants” value (M3 Shiloh plants; line Shiloh-06, 80 g ai ha^−1, three-leaf stage) was “Discard-Sensitive” and the “Tolerance of M3 Shiloh plants” value (M3 Shiloh plants; line Shiloh-07, 80 g ai ha^−1, three-leaf stage) was “Discard-Sensitive”. For the same molecule, the “Tolerance of M3 Shiloh plants” value (M3 Shiloh plants; line Shiloh-08, 80 g ai ha^−1, three-leaf stage) was “All Good MR-R”, the “Tolerance of M3 Shiloh plants” value (M3 Shiloh plants; line Shiloh-09, 80 g ai ha^−1, three-leaf stage) was “Discard-Sensitive” and the “Tolerance of M3 Shiloh plants” value (M3 Shiloh plants; line Shiloh-10, 80 g ai ha^−1, three-leaf stage) was “Discard-Sensitive”. For the same molecule, the “Tolerance of M3 Shiloh plants” value (M3 Shiloh plants; line Shiloh-11, 80 g ai ha^−1, three-leaf stage) was “Discard-Sensitive”, the “Tolerance of M3 Shiloh plants” value (M3 Shiloh plants; line Shiloh-12, 80 g ai ha^−1, three-leaf stage) was “Discard-Sensitive” and the “Tolerance of M3 Shiloh plants” value (M3 Shiloh plants; line Shiloh-13, 80 g ai ha^−1, three-leaf stage) was “Discard-Sensitive”. For the same molecule, the “Tolerance of M3 Shiloh plants” value (M3 Shiloh plants; line Shiloh-14, 80 g ai ha^−1, three-leaf stage) was “Medium MR-MS”, the “Reaction of Shiloh-08 plants to imazamox screen” value (Shiloh-08) was “confirmed a heritable homozygous reaction” and the “Genetic segregation for tolerance in the F2 population” value (iShiloh-8/iGDN F2's) was “no genetic segregation for tolerance”. For the same molecule, the “DGP+ Brown sheath” value (iShiloh-8/imi GDN F2's; [1]) was 0, the “Dead or Dying growth point” value (iShiloh-8/imi GDN F2's; [1]) was 0 and the “Strong Survivors” value (iShiloh-8/imi GDN F2's; [1]) was 140. For the same molecule, the Winkled or stunted (iShiloh-8/imi GDN F2's; [1]) was 27, the “Genetic segregation for tolerance in the F2 population” value (iShiloh-8/imi GDN F2's; test cross of Table 3, herbicide not named at this place) was “no genetic segregation for tolerance” and the “DGP+ Brown sheath” value (iShiloh-8) was 0. For the same molecule, the “Dead or Dying growth point” value (iShiloh-8) was 0, the “Strong Survivors” value (iShiloh-8) was 7 and the Winkled or stunted (iShiloh-8) was 1. The “DGP+ Brown sheath” value (Shiloh) was 7, the “Dead or Dying growth point” value (Shiloh) was 0 and the “Strong Survivors” value (Shiloh) was 0. The Winkled or stunted (Shiloh) was 0, the “DGP+ Brown sheath” value (imi GDN) was 0 and the “Dead or Dying growth point” value (imi GDN) was 0. The “Strong Survivors” value (imi GDN) was 1, the Winkled or stunted (imi GDN) was 1 and the “′99-′00 Rate D&O Plateville, CO (early) 4 oz/ac” value (iSHILOH-08; 4 oz/ac, early, scale 1-no effect 10-dead) was 2. For the same molecule, the “′99-′00 Rate D&O Quinter, KS (early) 4 oz/ac” value (iSHILOH-08; 4 oz/ac, early, scale 1-no effect 10-dead, spring application, temperature dropped 19° F. the night following application) was 2, the “′99-′00 Rate D&O Quinter, KS (late) 4 oz/ac” value (iSHILOH-08; 4 oz/ac, late, scale 1-no effect 10-dead, spring application, temperature dropped 19° F. the night following application) was 5 and the “′99-′00 Rate D&O Plateville, CO (early) 8 oz/ac” value (iSHILOH-08; 8 oz/ac, early, scale 1-no effect 10-dead) was 3. For the same molecule, the “′99-′00 Rate D&O Quinter, KS (early) 8 oz/ac” value (iSHILOH-08; 8 oz/ac, early, scale 1-no effect 10-dead, spring application, temperature dropped 19° F. the night following application) was 3, the “′99-′00 Rate D&O Quinter, KS (late) 8 oz/ac” value (iSHILOH-08; 8 oz/ac, late, scale 1-no effect 10-dead, spring application, temperature dropped 19° F. the night following application) was 6 and the “Sum ′99 M3 Progeny Rating (8 oz/ac) Field” value (iSHILOH-08; 8 oz/ac, field) was “R-MR”. For the same molecule, the “′99-′00 Rate D&O Plateville, CO (early) 4 oz/ac” value (9604 (iFEDEL); 4 oz/ac, early) was 1, the “′99-′00 Rate D&O Quinter, KS (early) 4 oz/ac” value (9604 (iFEDEL); 4 oz/ac, early, spring application, temperature dropped 19° F. the night following application) was 1 and the “′99-′00 Rate D&O Quinter, KS (late) 4 oz/ac” value (9604 (iFEDEL); 4 oz/ac, late, spring application, temperature dropped 19° F. the night following application) was 8. For the same molecule, the “′99-′00 Rate D&O Plateville, CO (early) 8 oz/ac” value (9604 (iFEDEL); 8 oz/ac, early) was 2, the “′99-′00 Rate D&O Quinter, KS (early) 8 oz/ac” value (9604 (iFEDEL); 8 oz/ac, early, spring application, temperature dropped 19° F. the night following application) was 2 and the “′99-′00 Rate D&O Quinter, KS (late) 8 oz/ac” value (9604 (iFEDEL); 8 oz/ac, late, spring application, temperature dropped 19° F. the night following application) was 8.
